Measured values as given in patent US8952024B2, “Herbicidal pyrimidone derivatives” (E I du Pont de Nemours and Company, priority 2009, dated 2015).

What was measured:
Assay in all cases: Test B pre-/postemergence plant response
Format in all cases: in vivo
[1] = system: Italian ryegrass (Lolium multiflorum)
Summary of the method: (§1)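 Visual ratings on a 0–100 scale (100 = complete control) were made versus untreated controls 13–15 days after treatment in a greenhouse. Compounds in surfactant-containing non-phytotoxic solvent were applied preemergence to seeds in loam–sand blend or postemergence to 1- to 4-leaf plants (2–18 cm).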

[2] = system: Surinam grass (Brachiaria decumbens)
Summary of the method: as §1

[3] = system: bermudagrass (Cynodon dactylon)
Summary of the method: as §1

[4] = system: blackgrass (Alopecurus myosuroides)
Summary of the method: as §1

[5] = system: corn (Zea mays)
Summary of the method: as §1

[6] = system: downy bromegrass (Bromus tectorum)
Summary of the method: as §1

[7] = system: giant foxtail (Setaria faberii)
Summary of the method: as §1

[8] = system: green foxtail (Setaria viridis)
Summary of the method: as §1

[9] = system: lambsquarters (Chenopodium album)
Summary of the method: as §1

[10] = system: large crabgrass (Digitaria sanguinalis)
Summary of the method: as §1

[11] = system: morningglory (Ipomoea coccinea)
Summary of the method: as §1

[12] = system: woolly cupgrass (Eriochloa villosa)
Summary of the method: as §1

[13] = system: yellow nutsedge (Cyperus esculentus)
Summary of the method: as §1

[14] = 250 g ai/ha, Preemergence, 0 to 100 scale
[15] = Postemergence, 31 g ai/ha, scale 0 to 100 (0 no effect, 100 complete control)
[16] = Postemergence, 62 g ai/ha, scale 0 (no effect) to 100 (complete control), 13 to 15 days
[17] = Postemergence, 125 g ai/ha, visual rating after 13 to 15 days, scale 0 (no effect) to 100 (complete control)
[18] = Postemergence, 250 g ai/ha, scale 0 to 100
[19] = Preemergence, 31 g ai/ha, scale 0 to 100 (0 no effect, 100 complete control)
[20] = Preemergence, 62 g ai/ha, scale 0 to 100 (0 no effect, 100 complete control)
[21] = Preemergence, 125 g ai/ha, 0 to 100 scale

Substance: 3-cyclohexyl-5-[(2-hydroxy-6-oxo-1-cyclohexen-1-yl)carbonyl]-2-phenyl-4(3H)-pyrimidinone [Compound 128]
- Plant response rating, Ryegrass, Italian [1, 14]: 0
- Plant response rating, Ryegrass, Italian [1, 15]: 10
- Plant response rating, Ryegrass, Italian [1, 16]: 10
- Plant response rating, Ryegrass, Italian [1, 17]: 40
- Ryegrass, Italian plant response rating [1, 18]: 40
- Plant response rating, Ryegrass, Italian [1, 19]: 0
- Plant response rating, Ryegrass, Italian [1, 20]: 0
- Ryegrass, Italian plant response rating [1, 21]: 0
- Plant response rating, Surinam Grass [2, 14]: 75
- Plant response rating, Surinam Grass [2, 15]: 60
- Plant response rating, Surinam Grass [2, 16]: 70
- Plant response rating, Surinam Grass [2, 17]: 85
- Surinam Grass plant response rating [2, 18]: 85
- Plant response rating, Surinam Grass [2, 19]: 0
- Plant response rating, Surinam Grass [2, 20]: 25
- Surinam Grass plant response rating [2, 21]: 35
- Plant response rating, Bermudagrass [3, 14]: 100
- Plant response rating, Bermudagrass [3, 15]: 80
- Plant response rating, Bermudagrass [3, 16]: 100
- Plant response rating, Bermudagrass ([3]; Postemergence, 125 g ai/ha, scale 0 to 100 (0 no effect, 100 complete control), 13 to 15 days): 100
- Bermudagrass plant response rating [3, 18]: 100
- Plant response rating, Bermudagrass [3, 19]: 98
- Plant response rating, Bermudagrass [3, 20]: 100
- Bermudagrass plant response rating [3, 21]: 100
- Plant response rating, Blackgrass [4, 14]: 60
- Plant response rating, Blackgrass [4, 15]: 5
- Plant response rating, Blackgrass [4, 16]: 5
- Plant response rating, Blackgrass [4, 17]: 40
- Blackgrass plant response rating [4, 18]: 40
- Plant response rating, Blackgrass [4, 19]: 0
- Plant response rating, Blackgrass [4, 20]: 5
- Blackgrass plant response rating [4, 21]: 30
- Plant response rating, Corn [5, 14]: 35
- Plant response rating, Corn [5, 15]: 70
- Plant response rating, Corn [5, 16]: 75
- Plant response rating, Corn [5, 17]: 80
- Corn plant response rating [5, 18]: 85
- Plant response rating, Corn [5, 19]: 0
- Plant response rating, Corn [5, 20]: 0
- Corn plant response rating [5, 21]: 0
- Plant response rating, Bromegrass, Downy [6, 14]: 5
- Plant response rating, Bromegrass, Downy [6, 15]: 20
- Plant response rating, Bromegrass, Downy [6, 16]: 35
- Plant response rating, Bromegrass, Downy [6, 17]: 45
- Bromegrass, Downy plant response rating [6, 18]: 45
- Plant response rating, Bromegrass, Downy [6, 19]: 0
- Plant response rating, Bromegrass, Downy [6, 20]: 0
- Bromegrass, Downy plant response rating [6, 21]: 0
- Plant response rating, Foxtail, Giant [7, 14]: 100
- Plant response rating, Foxtail, Giant [7, 15]: 75
- Plant response rating, Foxtail, Giant [7, 16]: 85
- Plant response rating, Foxtail, Giant [7, 17]: 98
- Foxtail, Giant plant response rating [7, 18]: 100
- Plant response rating, Foxtail, Giant [7, 19]: 0
- Plant response rating, Foxtail, Giant [7, 20]: 35
- Foxtail, Giant plant response rating [7, 21]: 75
- Plant response rating, Foxtail, Green [8, 14]: 65
- Plant response rating, Foxtail, Green [8, 15]: 60
- Plant response rating, Foxtail, Green [8, 16]: 60
- Plant response rating, Foxtail, Green [8, 17]: 85
- Foxtail, Green plant response rating [8, 18]: 98
- Plant response rating, Foxtail, Green [8, 19]: 0
- Plant response rating, Foxtail, Green [8, 20]: 25
- Foxtail, Green plant response rating [8, 21]: 65
- Plant response rating, Lambsquarters [9, 14]: 100
- Plant response rating, Lambsquarters [9, 15]: 50
- Plant response rating, Lambsquarters [9, 16]: 70
- Plant response rating, Lambsquarters [9, 17]: 95
- Lambsquarters plant response rating [9, 18]: 98
- Plant response rating, Lambsquarters [9, 19]: 100
- Plant response rating, Lambsquarters [9, 20]: 100
- Lambsquarters plant response rating [9, 21]: 100
- Plant response rating, Crabgrass, Large [10, 14]: 100
- Plant response rating, Crabgrass, Large [10, 15]: 80
- Plant response rating, Crabgrass, Large [10, 16]: 85
- Plant response rating, Crabgrass, Large [10, 17]: 100
- Crabgrass, Large plant response rating [10, 18]: 100
- Plant response rating, Crabgrass, Large [10, 19]: 60
- Plant response rating, Crabgrass, Large [10, 20]: 100
- Crabgrass, Large plant response rating [10, 21]: 100
- Plant response rating, Morningglory [11, 14]: 100
- Plant response rating, Morningglory [11, 15]: 15
- Plant response rating, Morningglory [11, 16]: 15
- Plant response rating, Morningglory [11, 17]: 70
- Morningglory plant response rating [11, 18]: 80
- Plant response rating, Morningglory [11, 19]: 0
- Plant response rating, Morningglory [11, 20]: 0
- Morningglory plant response rating [11, 21]: 35
- Plant response rating, Cupgrass, Woolly [12, 14]: 75
- Plant response rating, Cupgrass, Woolly [12, 15]: 55
- Plant response rating, Cupgrass, Woolly [12, 16]: 75
- Plant response rating, Cupgrass, Woolly [12, 17]: 90
- Cupgrass, Woolly plant response rating [12, 18]: 95
- Plant response rating, Cupgrass, Woolly [12, 19]: 0
- Plant response rating, Cupgrass, Woolly [12, 20]: 0
- Cupgrass, Woolly plant response rating [12, 21]: 15
- Plant response rating, Nutsedge, Yellow [13, 14]: 90
- Plant response rating, Nutsedge, Yellow [13, 15]: 25
- Plant response rating, Nutsedge, Yellow [13, 16]: 35
- Plant response rating, Nutsedge, Yellow [13, 17]: 50
- Nutsedge, Yellow plant response rating [13, 18]: 60
- Plant response rating, Nutsedge, Yellow [13, 19]: 0
- Plant response rating, Nutsedge, Yellow [13, 20]: 55
- Nutsedge, Yellow plant response rating [13, 21]: 85
